From patent US20080031866A1, “METHOD FOR MODULATING THE PHARMACOKINETICS AND METABOLISM OF A THERAPEUTIC AGENT” (priority 2006, published 2008)
Converted amounts (≈) assume the structure as drawn. Where two headings read alike, the source gives them in different places.

Tests used:
Solubility = assay type: physicochemical
[1] = Intracolonic dosing with and without β-glucuronidase, catheterized rat; assay type: in vivo; conditions: male, Sprague Dawley, rat, plasma, 10 mg/kg; for Cmax: read-out: Cmax average ± standard deviation; for concentration at 0 h / concentration at 0.25 h / concentration at 0.5 h / concentration at 1 h / concentration at 2 h / concentration at 3 h / concentration at 4 h / concentration at 5 h / concentration at 6 h: other: intracolonic
Procedure: A catheterized rat model was used in which the agent alone or agent and β-glucuronidase enzyme was administered intraduodenally or intracolonically. The intraduodenal and intracolonic dosing was intended to prevent the potential for loss of enzymatic activity when orally dosing the β-glucuronidase (e.g. by degradation in the stomach). […]
For the oral gavage dosing, Compound 1 was prepared in neat PEG-400. For the intraduodenal and intracolonic dosing solutions, Compound 1 was added to neat Tween 80, the mixture was sonicated for thirty minutes at 45° C. until Compound 1 was completely dissolved and then deionized (DI) water was added to form a solution consisting of 20% Tween 80 and 80% DI water by weight.
For the oral enzyme solutions, β-glucuronidase was added to the final formulation at a concentration of 57,600 units/ml.
For the intraduodenal and intracolonic dosing, male Sprague Dawley rats weighing 300-400 g were purchased from Charles River Labs. All rat experiments were conducted under approved animal protocols. The rats were catheterized at Charles River Labs and had one or more of the following chronic catheters for dosing and sampling: jugular/carotid, duodenal, and colonic. Rats were limited to only one GI catheter and one vascular catheter. For IV dosing, rats were purchased with jugular and carotid catheters for dosing in the jugular catheter and blood sampling through the carotid catheter. For intraduodenal/intracolonic dosing, rats had one of the GI catheters for dosing and a carotid catheter for blood sampling.
The surgeries were done two weeks prior to start of testing. Rats were fed 4 hours post dose administration. All rats were dosed without anesthesia and sacrificed at the end of the study.
A quantitative method for determining the amount of (6,7-dimethoxy-2,4-dihydro-indeno[1,2-c]pyrazol-3-yl)-(3-fluoro-phenyl)-amine Compound 1 and its major metabolites, glucuronide A (Cpd 1-GluA) and glucuronide B (Cpd 1-GluB) (see Scheme A) in rat plasma was developed using phenacetin as an internal standard. [drawing 1]
The two glucuronide conjugates were prepared and purified to permit accurate quantification of the levels of intact parent Compound 1 versus Cpd 1-GluA and Cpd 1-GluB. Each standard curve for Compound 1, Cpd 1-GluA, and Cpd 1-GluB generated from rat plasma included ten concentration levels. […] The quantitative procedure for each sample included: sample preparation, HPLC separation and mass spectrometry detection.
The rat plasma was prepared using protein precipitation techniques. Reference standards and quality control samples in rat plasma for Compound 1 were transferred to a 96 deep-well plate. The precipitation solution contained 100 ng/ml of internal standard in acetonitrile. 300 μl of precipitation solution were added to 100 μl of each standard, quality control and plasma sample. Samples were vortexed for 10 mins, then centrifuged at 4500 RPM for 10 mins. 10 μl of each sample were injected for LC/MS/MS analysis.
The HPLC column chosen for the bioanalysis was purchased from Thermo Electron (Hypersil BetaBasic C18, 5 cm×2.1 mm). The eluting solvents were composed of Solvent A: 0.1% formic acid in H2O and Solvent B: 0.1% formic acid in acetonitrile. A step gradient was used and flow rate was 300 μl/min. The total run time was 3.2 mins. Solvent B was increased from 35% at 0 min to 75% at 2.1 mins and decreased back to 35% at 2.2 mins. The retention times for Compound 1, phenacetin, Cpd 1-GluA and Cpd 1-GluB were 1.1 min, 0.9 min, 1.3 min, and 1.6 min, respectively.
API3000 with a Turbo Ionspray interface from Applied Biosystems was used for the detection of Compound 1, the internal standard and major metabolites. Electrospray ionization was performed in the positive ion mode heated nebulizer with a temperature of 300° C. LC/MS/MS chromatograms were acquired in MRM (multiple reaction mode). […]

[2] = Absorption (physicochemical properties)
[3] = rats N=6, Compound 1 10 mg/kg intracolonic with β-glucuronidase
[4] = rats N=6, Compound 1 10 mg/kg intracolonic without enzyme

Work on `COc1cc2c(cc1OC)-c1n[nH]c(Nc3cccc(F)c3)c1C2` [Compound 1, (6,7-dimethoxy-2,4-dihydro-indeno[1,2-c]pyrazol-3-yl)-(3-fluoro-phenyl)-amine] yielded a solubility (Solubility; aqueous media, aqueous buffer, pH 3.0, read-out: Solubility in aqueous media) of less than 6 µg/mL, a solubility (Solubility; aqueous media, aqueous buffer, pH 7.0, read-out: Solubility in aqueous media) of less than 2 µg/mL and a solubility (Solubility; aqueous with cosolvent or surfactant or cyclodextrin, 20/80-weight% Tween 80/DI water, read-out: Solubility) of 10000 µg/mL (≈ 30.7 mM). For the same compound, the solubility (Solubility; neat PEG-400, organic solvent or mixture, read-out: Solubility) was 7500 µg/mL (≈ 23.1 mM), the AUC ([1]; rats N=6, Compound 1 10 mg/kg intracolonic with β-glucuronidase, read-out: AUC average ± standard deviation 0 to 6 hours) was 9.5 ± 2.5 ng·h/mL and the Cmax [1, 3] was 4 ± 0.6 ng/mL. The AUC ([1]; rats N=6, Compound 1 10 mg/kg intracolonic without enzyme, read-out: AUC average ± standard deviation 0 to 6 hours) was 15.5 ± 24.9 ng·h/mL, the Cmax [1, 4] was 9.5 ± 17.9 ng/mL and the AUC ([1]; with and without β-glucuronidase, read-out: AUC of parent after intracolonic administration) was less than 16 ng·h/mL. The concentration at 0 h [1, 3] was 0 ng/mL, the concentration at 0.25 h [1, 3] was 129 ± 41.4 ng/mL and the concentration at 0.5 h [1, 3] was 107 ± 26.6 ng/mL. The concentration at 1 h [1, 3] was 75.6 ± 35 ng/mL, the concentration at 2 h [1, 3] was 21.2 ± 12.5 ng/mL and the concentration at 3 h [1, 3] was 12.9 ± 4.3 ng/mL. The concentration at 4 h [1, 3] was 9.5 ± 3.1 ng/mL, the concentration at 5 h [1, 3] was 3.7 ± 6.3 ng/mL and the concentration at 6 h [1, 3] was 1.7 ± 2.7 ng/mL. The concentration at 0 h [1, 4] was 0 ng/mL, the concentration at 0.25 h [1, 4] was 6.4 ± 11.5 ng/mL and the concentration at 0.5 h [1, 4] was 8 ± 15.7 ng/mL. It also gave a concentration at 1 h [1, 4] of 8.7 ± 18.2 ng/mL, a concentration at 2 h [1, 4] of 2 ± 3.1 ng/mL and a concentration at 3 h [1, 4] of 1.1 ± 2.7 ng/mL. It also gave a concentration at 4 h [1, 4] of 0 ng/mL, a concentration at 5 h [1, 4] of 0 ng/mL and a concentration at 6 h [1, 4] of 0 ng/mL. The Absorption [2] was 1.3e-05 cm/s.
